Experimental data reported in paper PMC11309911 (British journal of pharmacology, 2024).

Target: Cav2.1 calcium channel α1 subunit (P/Q-type hCav2.1) (Homo sapiens, UniProt O00555)
Test: whole-cell patch clamp of ICa in transfected HEK293-F cells
Type: cell-based

Chain of Cav2.1 calcium channel α1 subunit (P/Q-type hCav2.1) (O00555 whole entry): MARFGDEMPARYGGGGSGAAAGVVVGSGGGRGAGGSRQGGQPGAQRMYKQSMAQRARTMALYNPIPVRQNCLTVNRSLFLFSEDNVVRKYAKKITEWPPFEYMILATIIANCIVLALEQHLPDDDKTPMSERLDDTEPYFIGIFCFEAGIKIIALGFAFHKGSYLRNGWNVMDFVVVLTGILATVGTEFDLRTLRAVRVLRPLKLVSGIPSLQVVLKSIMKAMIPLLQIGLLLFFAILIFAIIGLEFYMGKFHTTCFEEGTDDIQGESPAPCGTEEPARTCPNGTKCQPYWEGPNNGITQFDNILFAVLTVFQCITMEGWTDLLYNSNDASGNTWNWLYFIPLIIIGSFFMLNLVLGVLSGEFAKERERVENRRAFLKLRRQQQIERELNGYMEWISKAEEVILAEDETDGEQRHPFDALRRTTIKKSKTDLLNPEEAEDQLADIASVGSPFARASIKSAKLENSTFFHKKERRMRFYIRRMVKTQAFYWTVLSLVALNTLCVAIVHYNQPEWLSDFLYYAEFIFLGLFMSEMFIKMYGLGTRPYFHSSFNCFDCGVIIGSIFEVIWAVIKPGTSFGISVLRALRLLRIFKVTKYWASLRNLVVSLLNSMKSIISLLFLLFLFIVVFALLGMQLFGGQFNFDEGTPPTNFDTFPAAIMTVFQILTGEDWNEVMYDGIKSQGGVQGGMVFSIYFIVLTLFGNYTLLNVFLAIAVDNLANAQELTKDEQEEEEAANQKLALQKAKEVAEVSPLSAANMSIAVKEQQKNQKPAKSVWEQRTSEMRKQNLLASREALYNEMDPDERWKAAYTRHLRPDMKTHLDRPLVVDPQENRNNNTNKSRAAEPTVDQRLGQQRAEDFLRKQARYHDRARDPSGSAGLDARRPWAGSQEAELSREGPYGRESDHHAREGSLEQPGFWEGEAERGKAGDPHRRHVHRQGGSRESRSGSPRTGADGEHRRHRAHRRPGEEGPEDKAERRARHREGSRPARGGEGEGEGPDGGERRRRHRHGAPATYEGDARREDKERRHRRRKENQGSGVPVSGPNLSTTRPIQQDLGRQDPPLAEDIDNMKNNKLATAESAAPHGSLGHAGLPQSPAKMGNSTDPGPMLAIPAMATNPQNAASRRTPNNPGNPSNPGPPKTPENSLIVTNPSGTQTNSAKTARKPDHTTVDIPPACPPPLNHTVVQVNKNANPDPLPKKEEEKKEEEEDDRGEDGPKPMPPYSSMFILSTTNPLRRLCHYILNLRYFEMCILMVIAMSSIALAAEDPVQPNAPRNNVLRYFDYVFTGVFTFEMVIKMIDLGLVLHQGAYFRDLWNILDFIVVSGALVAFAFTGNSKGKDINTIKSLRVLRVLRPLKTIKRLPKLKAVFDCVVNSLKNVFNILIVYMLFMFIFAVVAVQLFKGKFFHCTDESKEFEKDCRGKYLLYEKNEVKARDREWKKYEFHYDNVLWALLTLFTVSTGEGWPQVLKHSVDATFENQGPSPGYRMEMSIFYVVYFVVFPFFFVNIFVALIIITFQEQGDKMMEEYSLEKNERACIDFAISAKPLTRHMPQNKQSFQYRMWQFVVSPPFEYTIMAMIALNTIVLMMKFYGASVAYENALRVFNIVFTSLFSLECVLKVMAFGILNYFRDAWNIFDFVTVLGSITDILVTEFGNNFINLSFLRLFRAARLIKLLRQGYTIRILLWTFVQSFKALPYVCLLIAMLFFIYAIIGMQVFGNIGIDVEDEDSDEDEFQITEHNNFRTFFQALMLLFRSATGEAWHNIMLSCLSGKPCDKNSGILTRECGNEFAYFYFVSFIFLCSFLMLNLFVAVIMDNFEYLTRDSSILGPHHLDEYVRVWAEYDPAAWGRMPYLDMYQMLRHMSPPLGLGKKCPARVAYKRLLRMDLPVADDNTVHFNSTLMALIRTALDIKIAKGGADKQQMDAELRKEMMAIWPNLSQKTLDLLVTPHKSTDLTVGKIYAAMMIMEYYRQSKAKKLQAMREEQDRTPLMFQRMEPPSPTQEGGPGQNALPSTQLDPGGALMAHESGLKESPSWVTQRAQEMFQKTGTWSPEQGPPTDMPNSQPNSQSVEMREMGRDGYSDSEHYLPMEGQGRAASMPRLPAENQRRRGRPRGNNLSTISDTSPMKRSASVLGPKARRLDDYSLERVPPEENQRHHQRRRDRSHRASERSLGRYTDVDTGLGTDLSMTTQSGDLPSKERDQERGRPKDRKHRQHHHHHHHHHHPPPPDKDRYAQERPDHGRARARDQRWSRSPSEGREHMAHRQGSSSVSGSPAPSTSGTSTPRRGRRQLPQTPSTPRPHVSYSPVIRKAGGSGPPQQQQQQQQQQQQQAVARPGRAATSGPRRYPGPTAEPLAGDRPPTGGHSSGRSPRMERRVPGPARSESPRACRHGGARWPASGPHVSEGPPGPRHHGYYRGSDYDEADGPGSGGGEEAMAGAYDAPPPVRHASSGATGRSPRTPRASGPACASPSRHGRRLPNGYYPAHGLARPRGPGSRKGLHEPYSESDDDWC

`N.N.N.N.N.N.N.N.[Cl][Ru+3].[NH]=[Ru][Cl]` [Ru265] gave an IC50 of ~2500 nM.
